The record followed here is US10610863B2, “Automatic microfluidic system for antibiotic susceptibility testing and method of operating thereof” (NATIONAL TSING HUA UNIVERSITY, priority 2016, dated 2020).

In brackets after ≈: the same amount, converted by molar mass.

The test system of assay [1] is vancomycin-intermediate Staphylococcus aureus (VISA). Nature of the assay: Microfluidic system of Embodiment 2 combination susceptibility testing (Test 6). Type of assay: cell-based. The following applies: for minimum inhibitory concentration alone (denominator of the FIC equation): antibiotic alone; for minimum inhibitory concentration in combination (vancomycin + ceftazidime): colorimetric, 24 hours of incubation at 37° C.
Procedure: In Test 6, vancomycin-intermediate Staphylococcus aureus (VISA) is designed as a bacterial suspension to be tested, and two antibiotic solutions, that is, vancomycin and ceftazidime, with different concentrations are prepared. In details, the two antibiotic solutions are transported, separately, to each of the second reaction chambers 124a′, 124b′, 124c′, 124d′, 124e′, 124f′, 124g′, 124h′, 124i′, 124j′, 124k′ to mix with the broth and the bacterial suspension to be tested. Then, concentrations of vancomycin of the second reaction chambers 124a′, 124b′, 124c′, 124d′, 124e′, 124f′, 124g′, 124h′, 124i′, 124j′, 124k′ are 4 μg/mL, 6 μg/mL, 4 μg/mL, 4 μg/mL, 4 μg/mL, 0 μg/mL, 6 μg/mL, 6 μg/mL, 2 μg/mL, 2 μg/mL and 2 μg/mL, respectively. Furthermore, concentrations of ceftazidime of the second reaction chambers 124a′, 124b′, 124c′, 124d′, 124e′, 124f′, 124g′, 124h′, 124i′, 124j′, 124k′ are 2 μg/mL, 2 μg/mL, 4 μg/mL, 6 μg/mL, 0 μg/mL, 4 μg/mL, 6 μg/mL, 4 μg/mL, 6 μg/mL, 4 μg/mL and 2 μg/mL, respectively. In addition, a proper pH indicator, such as phenol red, is added to the broth in Test 6. After incubation at 37° C. for 24 hours, results can be visually observed.
In particular, incubation times from FIG. 10(a) to FIG. 10(d) are 0 hour, 10 hours, 17 hours and 24 hours.
Then, a fractional inhibitory concentration index of the two antibiotic solutions for the vancomycin-intermediate Staphylococcus aureus can be derived from the following equation: FICindex=FICA+FICB. FICA is calculated as a quotient between the minimum inhibitory concentration of vancomycin in combination and the minimum inhibitory concentration of vancomycin alone, and FICB is calculated as a quotient between the minimum inhibitory concentration of ceftazidime in combination and the minimum inhibitory concentration of ceftazidime alone. In particular, the combination can be determined as synergic when the fractional inhibitory concentration index is ≤0.5, as antagonistic when the fractional inhibitory concentration index is >4. The results between synergy and antagonistic tendency are defined as additive or indifferent.

The test system of assay [2] is E. gallinarum (vanC1). In words: Microfluidic system of Embodiment 1 antibiotic susceptibility testing (Test 4). Type of assay: cell-based. The following applies: Enterococcus gallinarum, incubation time 16 hours. The procedure:
(§1) Briefly, five different concentrations of antibiotic solutions (0 μg/mL, 2 μg/mL, 4 μg/mL, 6 μg/mL, and 8 μg/mL) are prepared, separately, by the microfluidic system of Embodiment 1 of the present disclosure with the proportional dilution mode. Then, the antibiotic solutions are mixed with the bacteria suspensions at a final concentration of 5×10^5 CFU/mL. The determination of the minimum inhibitory concentration is read after incubation at 37° C. for 24 hours.
(§2) Alternatively, a proper pH indicator, such as phenol red, also can be added to the broth as a determination method. In details, a pH-dependent colorimetric broth, which includes brain heart infusion (BHI) media supplemented with 1% glucose and 0.05% phenol red, and antibiotics, are loaded. Then, the standard strain Enterococcus 29212 is loaded as the bacteria suspension to be tested herein for the antibiotic susceptibility testing. […]
In Test 4, the antibiotic solution, the dilution mode and the operation of the microfluidic system are the as Test 1. […] In particular, a genotype of the vancomycin-resistant Enterococcus in Test 4 is vanC1, and a minimum inhibitory concentration thereof is determined by the conventional method (E-Test®) to be 3 μg/mL. The incubation time and the determined minimum inhibitory concentration of E. gallinarum (vanC1) in Test 4 are listed in Table 1.

Assay [3] deals with E. faecium (vanA). Nature of the assay: Microfluidic system of Embodiment 1 antibiotic susceptibility testing (Test 2). It is filed as cell-based. Particulars: Enterococcus faecium, incubation time 24 hours. The procedure:
as §1
as §2, with “testing. Please refer to FIG. 9, which is colorimetric results of the antibiotic susceptibility testing of the standard strain Enterococcus 29212 diluted by the microfluidic chip of FIG. 1.” for “testing.”
In Test 2, the antibiotic solution, the dilution mode and the operation of the microfluidic system are the as Test 1. […] In particular, a genotype of the vancomycin-resistant Enterococcus in Test 2 is vanA, and a minimum inhibitory concentration thereof is determined by the conventional method (E-Test®) to be 32 μg/mL.

Assay [4] relates to E. casseliflavus (vanC2). In words: E-Test MIC, vancomycin-resistant Enterococcus vanC2 (Test 5). The following applies: 24 h, read-out: MIC (E-test). It is filed as cell-based. The procedure: In Test 5, the antibiotic solution, the dilution mode and the operation of the microfluidic system are the as Test 1. However, a bacterial suspension to be tested of Test 5 is the bacterial suspension containing E. casseliflavus (vancomycin-resistant Enterococcus). In particular, a genotype of the vancomycin-resistant Enterococcus in Test 4 is vanC2, and a minimum inhibitory concentration thereof is determined by the conventional method (E-Test®) to be 4 μg/mL. The incubation time and the determined minimum inhibitory concentration of E. casseliflavus (vanC2) in Test 5 are listed in Table 1.

The subject of assay [5] is E. faecium (vanB). Nature of the assay: Microfluidic system of Embodiment 1 antibiotic susceptibility testing (Test 3). The following applies: Enterococcus faecium, incubation time 19 hours. It is filed as cell-based. The procedure: as §1
as §2, with “testing. Please refer to FIG. 9, which is colorimetric results of the antibiotic susceptibility testing of the standard strain Enterococcus 29212 diluted by the microfluidic chip of FIG. 1.” for “testing.”
In Test 3, the antibiotic solution, the dilution mode and the operation of the microfluidic system are the as Test 1. […] In particular, a genotype of the vancomycin-resistant Enterococcus in Test 3 is vanB, and a minimum inhibitory concentration thereof is determined by the conventional method (E-Test®) to be 8 μg/mL.

Assay [6] concerns E. gallinarum (vanC1). Nature of the assay: E-Test MIC, vancomycin-resistant Enterococcus vanC1 (Test 4). Type of assay: cell-based. The following applies: incubation time 24 hours. The procedure:
In Test 4, the antibiotic solution, the dilution mode and the operation of the microfluidic system are the as Test 1. However, a bacterial suspension to be tested of Test 4 is the bacterial suspension containing E. gallinarum (vancomycin-resistant Enterococcus). In particular, a genotype of the vancomycin-resistant Enterococcus in Test 4 is vanC1, and a minimum inhibitory concentration thereof is determined by the conventional method (E-Test®) to be 3 μg/mL. The incubation time and the determined minimum inhibitory concentration of E. gallinarum (vanC1) in Test 4 are listed in Table 1.

The subject of assay [7] is standard strain Enterococcus 29212 (ATCC). In words: Microfluidic system of Embodiment 1 antibiotic susceptibility testing (Test 1). The following applies: for MIC: Enterococcus. Type of assay: cell-based, E. faecalis.
Source text: In Test 1, a standard strain Enterococcus 29212, which includes E. faecalis and is purchased from American type culture collection (ATCC), is designed as a bacterial suspension to be tested. […] In particular, the antibiotic solution of Test 1 is a vancomycin-containing solution.
As to the determination of the minimum inhibitory concentration, a quantitative dye can be added into each of the first reaction chamber 122, the second reaction chamber 124a, the second reaction chamber 124b, the second reaction chamber 124c, and the second reaction chamber 124d as mentioned above. After few minutes, an upright fluorescent microscope is applied for determining fluorescent staining results as shown in FIG. 8. In details, the fluorescent staining results of the first mixing solution and each of the second mixing solutions (that is, the concentration of the antibiotic solution is 0 μg/mL, 2 μg/mL, 4 μg/mL, 6 μg/mL and 8 μg/mL, respectively) are shown, separately, from FIG. 8 (a) to FIG. 8 (e).
Alternatively, a proper pH indicator, such as phenol red, also can be added to the broth as a determination method. In details, a pH-dependent colorimetric broth, which includes brain heart infusion (BHI) media supplemented with 1% glucose and 0.05% phenol red, and antibiotics, are loaded. Then, the standard strain Enterococcus 29212 is loaded as the bacteria suspension to be tested herein for the antibiotic susceptibility testing. […] In particular, incubation times from FIG. 9(a) to FIG. 9(f) are 0 hour, 4 hours, 10 hours, 20 hours, 23 hours, and 24 hours.
The pH-dependent colorimetric broth will be transformed into an acidic pH due to bacterial growth, and the phenol red can be visually observed through color change from red to yellow.
Assay [8] shares this test system. Nature of the assay: E-Test MIC, standard strain Enterococcus 29212 (Test 1). Type of assay: cell-based, E. faecalis. Particulars: incubation time 24 hours. The procedure: In Test 1, a standard strain Enterococcus 29212, which includes E. faecalis and is purchased from American type culture collection (ATCC), is designed as a bacterial suspension to be tested. The standard strain Enterococcus 29212 is susceptible Enterococcus, and a minimum inhibitory concentration of the standard strain Enterococcus 29212 detected by a clinical standard (i.e., E-Test®) is 4 μg/mL. In particular, the antibiotic solution of Test 1 is a vancomycin-containing solution.

Assay [9] concerns E. faecium (vanB). In words: E-Test MIC, vancomycin-resistant Enterococcus vanB (Test 3). Type of assay: cell-based. Particulars: incubation time 24 hours. The procedure: In Test 3, the antibiotic solution, the dilution mode and the operation of the microfluidic system are the as Test 1. However, a bacterial suspension to be tested of Test 3 is the bacterial suspension containing E. faecium (vancomycin-resistant Enterococcus). In particular, a genotype of the vancomycin-resistant Enterococcus in Test 3 is vanB, and a minimum inhibitory concentration thereof is determined by the conventional method (E-Test®) to be 8 μg/mL.

Assay [10] concerns E. casseliflavus (vanC2). In words: Microfluidic system of Embodiment 1 antibiotic susceptibility testing (Test 5). Type of assay: cell-based. Particulars: Enterococcus casseliflavus, incubation time 17 hours. The procedure:
as §1, §2
In Test 5, the antibiotic solution, the dilution mode and the operation of the microfluidic system are the as Test 1. […] In particular, a genotype of the vancomycin-resistant Enterococcus in Test 4 is vanC2, and a minimum inhibitory concentration thereof is determined by the conventional method (E-Test®) to be 4 μg/mL. The incubation time and the determined minimum inhibitory concentration of E. casseliflavus (vanC2) in Test 5 are listed in Table 1.

Assay [11] deals with E. faecium (vanA). Nature of the assay: E-Test MIC, vancomycin-resistant Enterococcus vanA (Test 2). It is filed as cell-based. The following applies: incubation time 24 hours. The procedure: In Test 2, the antibiotic solution, the dilution mode and the operation of the microfluidic system are the as Test 1. However, a bacterial suspension to be tested of Test 2 is the bacterial suspension containing E. faecium (vancomycin-resistant Enterococcus). In particular, a genotype of the vancomycin-resistant Enterococcus in Test 2 is vanA, and a minimum inhibitory concentration thereof is determined by the conventional method (E-Test®) to be 32 μg/mL.

With `CC(C)(O/N=C(\C(=O)N[C@@H]1C(=O)N2C(C(=O)[O-])=C(C[n+]3ccccc3)CS[C@H]12)c1csc(N)n1)C(=O)O` [ceftazidime], in [1], the “minimum inhibitory concentration alone (denominator of the FIC equation)” value is above 256 and the “minimum inhibitory concentration in combination (vancomycin + ceftazidime)” value was 2 µg/mL.

As to `CN[C@H](CC(C)C)C(=O)N[C@H]1C(=O)N[C@@H](CC(N)=O)C(=O)N[C@H]2C(=O)N[C@H]3C(=O)N[C@H](C(=O)N[C@H](C(=O)O)c4cc(O)cc(O)c4-c4cc3ccc4O)[C@H](O)c3ccc(c(Cl)c3)Oc3cc2cc(c3O[C@@H]2O[C@H](CO)[C@@H](O)[C@H](O)[C@H]2O[C@H]2C[C@](C)(N)[C@H](O)[C@H](C)O2)Oc2ccc(cc2Cl)[C@H]1O` [vancomycin], the MIC in assay [2] is 4 µg/mL (≈ 2.76 µM); in assay [3] it was above 16 µg/mL; in [4] it was 4 µg/mL (≈ 2.76 µM); in assay [5], 4 µg/mL (≈ 2.76 µM); in assay [6], 3 µg/mL (≈ 2.07 µM); in [7] (37° C. for 24 hours, live bacteria green fluorescence, read-out: minimum inhibitory concentration by fluorescent staining), 4 µg/mL (≈ 2.76 µM). The MIC in assay [7] (colorimetric (phenol red), incubation time 20 hours, read-out: MIC (Microfluidic system of Embodiment 1)) was found to be 4 µg/mL (≈ 2.76 µM); in assay [8], 4 µg/mL (≈ 2.76 µM); in assay [9], 8 µg/mL (≈ 5.52 µM); in [10] it was 6 µg/mL (≈ 4.14 µM); in [11] it was 32 µg/mL (≈ 22.1 µM). Besides, the “susceptibility of the strain according to the CLSI guidelines” value in assay [7] is “susceptible”. The “MIC (Microfluidic system of Embodiment 1)” value in [7] (colorimetric (phenol red), incubation time 20 hours) was 4 ± 0 µg/mL. The “minimum inhibitory concentration alone (denominator of the FIC equation)” value in assay [1] amounted to 3. Besides, the “minimum inhibitory concentration in combination (vancomycin + ceftazidime)” value in [1] stood at 4 µg/mL.
